Consider 21 compounds from ChEMBL document CHEMBL4339224, “Identification of a Strigoterpenoid with Dual Nrf2 and Nf-κB Modulatory Activity” (ACS Med Chem Lett, 2019).

The target of assay [1] is T1, Nuclear factor erythroid 2-related factor 2 (Homo sapiens, UniProt Q16236).
T1 sequence (Q16236 whole entry): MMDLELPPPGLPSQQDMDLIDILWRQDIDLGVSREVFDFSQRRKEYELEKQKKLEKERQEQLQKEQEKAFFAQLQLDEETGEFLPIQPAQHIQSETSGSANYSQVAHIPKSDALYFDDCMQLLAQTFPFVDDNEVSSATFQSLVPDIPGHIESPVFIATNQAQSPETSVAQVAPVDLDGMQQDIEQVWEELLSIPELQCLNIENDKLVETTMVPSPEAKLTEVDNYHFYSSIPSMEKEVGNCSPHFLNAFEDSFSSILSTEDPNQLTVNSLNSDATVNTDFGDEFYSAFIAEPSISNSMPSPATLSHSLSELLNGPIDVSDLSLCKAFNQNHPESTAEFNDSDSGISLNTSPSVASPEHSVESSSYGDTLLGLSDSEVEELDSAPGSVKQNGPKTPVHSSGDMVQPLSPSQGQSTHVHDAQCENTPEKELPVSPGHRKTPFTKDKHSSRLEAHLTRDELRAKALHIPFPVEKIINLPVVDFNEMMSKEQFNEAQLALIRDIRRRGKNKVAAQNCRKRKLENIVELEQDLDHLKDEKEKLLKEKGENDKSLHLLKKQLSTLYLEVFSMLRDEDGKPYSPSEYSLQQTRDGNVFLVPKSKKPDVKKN
Kind of assay: Activation of Nrf2 in human HaCaT-ARE-Luc cells expressing Nqo1 ARE-Luc reporter plasmid incubated for 6 hrs by luciferase reporter gene assay. The assay is classed as cell-based.

Assay [2] in a line: Inhibition of TNFalpha-induced NFkappaB (unknown origin) expressed in mouse NIH3T3-KBF-Luc cells pre-incubated for 15 mins before TNFalpha stimulation for 6 hrs by luciferase reporter gene assay. Format: cell-based, Homo sapiens.
The test system of assay [3] is HaCaT. Kind of assay: Induction of ROS production in human HaCaT cells at 400 uM incubated for 3 hrs by DCFH-DA staining based fluorimetry. The assay is classed as functional, cell-based.
Assay [4] concerns the target T2, Nuclear factor erythroid 2-related factor 2 (Homo sapiens) (UniProt Q16236).
T2 sequence (whole entry): T1 sequence (Q16236 whole entry)
Description: Activation of Nrf2 in human HaCaT-ARE-Luc cells expressing Nqo1 ARE-Luc reporter plasmid at 0.1 to 50 uM in presence of 15 mM NAC incubated for 6 hrs by luciferase reporter gene assay. Format: cell-based.

Assay [5] deals with HaCaT. Description: Induction of ROS production in human HaCaT cells at 10 uM incubated for 3 hrs by DCFH-DA staining based fluorimetry. Format: functional, cell-based.
Assay [6] deals with Transcription factor p65 (Homo sapiens) (UniProt Q04206). Description: Inhibition of TNFalpha-induced NFkappaB (unknown origin) canonical pathway expressed in mouse NIH3T3-KBF-Luc cells assessed as inhibition of p65 phosphorylation pre-incubated for 15 mins before TNFalpha stimulation for 6 hrs by Western blot analysis. Format: cell-based.
Transcription factor p65 (Homo sapiens), sequence (Q04206 whole entry): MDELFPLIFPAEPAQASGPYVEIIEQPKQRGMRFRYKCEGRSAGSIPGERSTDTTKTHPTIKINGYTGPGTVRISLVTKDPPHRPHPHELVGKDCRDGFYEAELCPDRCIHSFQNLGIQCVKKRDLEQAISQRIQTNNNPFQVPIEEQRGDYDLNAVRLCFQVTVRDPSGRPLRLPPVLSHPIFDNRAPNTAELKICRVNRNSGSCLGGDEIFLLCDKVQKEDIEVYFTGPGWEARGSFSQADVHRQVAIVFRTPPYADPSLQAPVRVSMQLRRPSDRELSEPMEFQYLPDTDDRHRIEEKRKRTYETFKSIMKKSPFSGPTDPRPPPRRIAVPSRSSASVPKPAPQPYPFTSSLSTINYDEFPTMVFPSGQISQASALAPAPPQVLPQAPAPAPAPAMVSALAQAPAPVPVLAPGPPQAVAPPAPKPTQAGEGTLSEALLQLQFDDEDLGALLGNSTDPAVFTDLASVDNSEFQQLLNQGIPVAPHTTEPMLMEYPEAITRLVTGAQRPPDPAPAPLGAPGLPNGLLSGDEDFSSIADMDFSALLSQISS
The next assay is filed under the species Homo sapiens. Description: Inhibition of TNFalpha-induced NFkappaB (unknown origin) canonical pathway expressed in mouse NIH3T3-KBF-Luc cells assessed as inhibition of IkappaB-alpha phosphorylation pre-incubated for 15 mins before TNFalpha stimulation for 6 hrs by Western blot analysis. Format: cell-based.

Calls of active or inactive are those of the source. The calls are words filed in the database; no cut-off is given here.

Consider `CC1=CC(O/C=C2/C(=O)[C@H](C(C)C)CC[C@H]2C)OC1=O` (stereo partly drawn), for which, in assay [1], the EC50 is 17.8 µM. In assay [2], this compound yielded an IC50 greater than 50 µM.
On to `CC(C)=CCC/C(C)=C/COC1C=C(C)C(=O)O1` (stereo not drawn), for which, in assay [1], the EC50 is 16.2 µM. In addition, the IC50 in assay [2] is greater than 50 µM.
The matching figures for `CC(C)=CCCC(C)CCOC1C=C(C)C(=O)O1` (stereo not drawn): 22.8 µM and greater than 50 µM.
`C=C(C)[C@@H]1CC[C@]2(C(=O)OC)CC[C@]3(C)[C@H](CC[C@@H]4[C@@]5(C)C/C(=C\OC6C=C(C)C(=O)O6)C(=O)C(C)(C)[C@@H]5CC[C@]43C)[C@@H]12` (stereo partly drawn) showed an EC50 in assay [1] greater than 50 µM. The same compound came in with an IC50 in assay [2] greater than 50 µM.
Take `CC1=CC(OCC2=CC3CC(C2)C3(C)C)OC1=O` (stereo not drawn): it took 15.5 µM to reach a half-maximal effect in assay [1] (EC50). For the same compound, the IC50 in assay [2] is greater than 50 µM.
The matching figures for `COC(=O)[C@]12CCC(C)(C)C[C@H]1C1=CC[C@@H]3[C@@]4(C)C/C(=C\OC5C=C(C)C(=O)O5)C(=O)C(C)(C)[C@@H]4CC[C@@]3(C)[C@]1(C)CC2` (stereo partly drawn): greater than 50 µM and greater than 50 µM.
Turning to `COC(=O)/C(C)=C/CC/C(C)=C/CC/C(C)=C/CC[C@@H]1[C@@]2(C)C/C(=C\OC3C=C(C)C(=O)O3)C(=O)C(C)(C)C2CC[C@@]1(C)O` (stereo partly drawn), the EC50 in assay [1] was found to be 2.5 µM.
On to `C=C(C)[C@@H]1CC=C(C)C(=O)/C1=C/OC1C=C(C)C(=O)O1` (stereo partly drawn), for which it took 1.6 µM to reach a half-maximal effect in assay [1] (EC50). This compound also came in with an IC50 in assay [2] greater than 50 µM.
In the same order, the values of `C=C(C)[C@@H]1CC[C@]2(C)CC[C@]3(C)[C@H](CC[C@@H]4[C@@]5(C)C/C(=C\OC6C=C(C)C(=O)O6)C(=O)C(C)(C)[C@@H]5CC[C@]43C)[C@@H]12` (stereo partly drawn) are greater than 50 µM and greater than 50 µM.
`CC1=C[C@H](O/C=C2/C(=O)O[C@@H]3C4=C(C[C@H]23)[C@@H](O)CCC4(C)C)OC1=O` [STRIGOL] had an EC50 in assay [1] of 1.2 µM.
Consider `CC(C)(C)OO`, for which, in the assay with HaCaT [3], the result was Active.
As to `CC1=CC(O/C=C2\C[C@]3(C)[C@H]4CC=C5[C@@H]6CC(C)(C)CC[C@]6(C)CC[C@@]5(C)[C@]4(C)CC[C@H]3C(C)(C)C2=O)OC1=O` (stereo partly drawn), the EC50 in assay [1] is greater than 50 µM. In addition, the IC50 in assay [2] was greater than 50 µM.
For `CC1=CC(OCc2ccc(C(C)C)cc2)OC1=O` (stereo not drawn), the EC50 in assay [1] worked out at 16.3 µM. Further, in assay [2], the IC50 is greater than 50 µM.
For the compound `CC1=CC(O/C=C2\C[C@]3(C)C(COc4ccc5ccc(=O)oc5c4)[C@](C)(O)CC[C@H]3C(C)(C)C2=O)OC1=O` (stereo partly drawn), the EC50 in assay [1] was 1.2 µM. For the same compound, the result (in assay [4]; in the assay on HaCaT [5]) was inactive. In assay [2], this compound registered an IC50 of 7.9 µM.
In assay [1], `COC(=O)[C@@]1(C)CC[C@]2(C)CC[C@]3(C)C(=CC(=O)[C@@H]4[C@@]5(C)C/C(=C\OC6C=C(C)C(=O)O6)C(=O)C(C)(C)[C@@H]5CC[C@]43C)[C@@H]2C1` (stereo partly drawn) showed an EC50 greater than 50 µM. In assay [2], this compound yielded an IC50 greater than 50 µM.
In the case of `CC1=CC(O/C=C2\C[C@]3(C)[C@H]4CC=C5[C@@H]6[C@@H](C)[C@H](C)CC[C@]6(C)CC[C@@]5(C)[C@]4(C)CC[C@H]3C(C)(C)C2=O)OC1=O` (stereo partly drawn), the EC50 in assay [1] is greater than 50 µM. Further, the IC50 in assay [2] is greater than 50 µM.
Consider `CC1=CC(OC2C[C@H](C)CC[C@H]2C(C)C)OC1=O` (stereo partly drawn), for which it took 26.3 µM to reach a half-maximal effect in assay [1] (EC50). In assay [2], this compound had an IC50 greater than 50 µM.
In the case of `CC1=CC(O/C=C2/C(=O)C(=C(C)C)CC[C@H]2C)OC1=O` (stereo partly drawn), the EC50 in assay [1] came to 5 µM. The compound further showed an IC50 in assay [2] greater than 50 µM.
For the compound `COC(=O)[C@]12CC[C@@H](C)[C@H](C)[C@H]1C1=CC[C@@H]3[C@@]4(C)C/C(=C\OC5C=C(C)C(=O)O5)C(=O)C(C)(C)[C@@H]4CC[C@@]3(C)[C@]1(C)CC2` (stereo partly drawn), the inhibition result (in assay [6]; in the assay filed under Homo sapiens) was “inactive” in each case. Besides, the EC50 in assay [1] is greater than 50 µM. The same compound yielded an IC50 in assay [2] greater than 50 µM.
As to `CC(C)=CCOC1C=C(C)C(=O)O1` (stereo not drawn), a half-maximal effect in assay [1] (EC50) was put at 29.5 µM. Moreover, in assay [2], the IC50 was greater than 50 µM.
In the same order, the values of `CC1=CC(O/C=C2/C(=O)C(C)[C@H]3C[C@@]23C(C)C)OC1=O` (stereo partly drawn) are 1.9 µM and greater than 50 µM.
